One test has as its target IRK (Homo sapiens, UniProt P06213). Kind of test: Kinase assay, IRK. The format is biochemical. As to the method:
(§1) Kinase activity and compound inhibition are investigated using one or more assay formats. The ATP concentrations for each assay are selected to be close to the Michaelis-Menten constant (KM) for each individual kinase. Dose-response experiments are performed at 10 different inhibitor concentrations in a 384-well plate format. […] Exemplary kinase assays are described below. KDR Assay

In another test the target is c-Kit kinase (Homo sapiens, UniProt P10721). Kind of test: c-Kit AlphaScreen kinase assay. The format is biochemical. As to the method: as §1
c-Kit biochemical activity was assessed using AlphaScreen™ (Perkin Elmer) technology, described above. Test compounds, ATP, biotinylated poly(Glu, Tyr) and c-Kit kinase were combined in a volume of 20 μL in a 384-well white, medium binding microtiter plate (Greiner). Reaction mixtures were incubated for 1 hr at ambient temperature. Reactions were quenched by addition of 10 uL of […] AlphaScreen bead suspension containing 75 mM Hepes, pH 7.4, 300 mM NaCl, 120 mM EDTA, 0.3% BSA and 0.03% Tween-20. After 16 hr incubation at ambient temperature plates were read using an AlphaQuest reader (Perkin Elmer).

Another test deals with EGFR (Homo sapiens, UniProt P00533). Kind of test: Kinase assay, EGFR (33P-ATP incorporation or luciferase-coupled ATP consumption). The format is biochemical. The procedure, abridged: (§2)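 Kinase activity measured either by γ-33P ATP incorporation into immobilized substrate (MBP or pEY) with scintillation counting, or by luciferase-based ATP consumption with pEY. Enzyme 10 or 20 nM; ATP near each kinase's KM (e.g. 10 or 30 μM); 1 h at room temperature, 1% DMSO, 10-point dose-response.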

For test [1], the target named is T1, KDR (baculovirus expressed human KDR kinase domain D807-V1356) (Homo sapiens, UniProt P35968).
T1 construct: human KDR kinase domain D807-V1356; host or cells: baculovirus expression system
Put plainly: biochemical. The procedure, abridged:
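Luciferase-coupled chemiluminescence quantifies ATP left after a 4 h room-temperature reaction of KDR kinase domain (D807–V1356, baculovirus-expressed human). ATP set close to KM; inhibitors tested at 10 concentrations.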

The target in another test is PDGFR alpha (Homo sapiens, UniProt P16234). Put plainly: Kinase assay, PDGFR alpha (33P-ATP incorporation or luciferase-coupled ATP consumption). It counts as biochemical. Conditions: read-out: PDGF-R-A IC50. The procedure, abridged: as §2
Another test addresses FGFR1 (Homo sapiens, UniProt P11362). Put plainly: Kinase assay, FGFR1 (33P-ATP incorporation or luciferase-coupled ATP consumption). It counts as biochemical. In outline:
as §2

The target in a further test is Fyn (Homo sapiens, UniProt P06241). Kind of test: Kinase assay, Fyn. The format is biochemical. The protocol: as §1
The target in the next test is EphA2 (Homo sapiens, UniProt P29317). Kind of test: Kinase assay, EphA2 (33P-ATP incorporation or luciferase-coupled ATP consumption). It counts as biochemical. The procedure, abridged: as §2
In another test the target is Flt-1 (Homo sapiens, UniProt P17948). Put plainly: Kinase assay, Flt-1 (33P-ATP incorporation or luciferase-coupled ATP consumption). The format is biochemical. Conditions: read-out: Flt1 IC50. The procedure, abridged: as §2

This passage reports IC50 results from patent publication US7626031B2, “Substituted 3-(diarylmethylene)indolin-2-ones and methods of their use” (Symphony Evolution, Inc., priority 2002, dated 2009).

Flt-1, sequence (P17948 27-1338, species assumed): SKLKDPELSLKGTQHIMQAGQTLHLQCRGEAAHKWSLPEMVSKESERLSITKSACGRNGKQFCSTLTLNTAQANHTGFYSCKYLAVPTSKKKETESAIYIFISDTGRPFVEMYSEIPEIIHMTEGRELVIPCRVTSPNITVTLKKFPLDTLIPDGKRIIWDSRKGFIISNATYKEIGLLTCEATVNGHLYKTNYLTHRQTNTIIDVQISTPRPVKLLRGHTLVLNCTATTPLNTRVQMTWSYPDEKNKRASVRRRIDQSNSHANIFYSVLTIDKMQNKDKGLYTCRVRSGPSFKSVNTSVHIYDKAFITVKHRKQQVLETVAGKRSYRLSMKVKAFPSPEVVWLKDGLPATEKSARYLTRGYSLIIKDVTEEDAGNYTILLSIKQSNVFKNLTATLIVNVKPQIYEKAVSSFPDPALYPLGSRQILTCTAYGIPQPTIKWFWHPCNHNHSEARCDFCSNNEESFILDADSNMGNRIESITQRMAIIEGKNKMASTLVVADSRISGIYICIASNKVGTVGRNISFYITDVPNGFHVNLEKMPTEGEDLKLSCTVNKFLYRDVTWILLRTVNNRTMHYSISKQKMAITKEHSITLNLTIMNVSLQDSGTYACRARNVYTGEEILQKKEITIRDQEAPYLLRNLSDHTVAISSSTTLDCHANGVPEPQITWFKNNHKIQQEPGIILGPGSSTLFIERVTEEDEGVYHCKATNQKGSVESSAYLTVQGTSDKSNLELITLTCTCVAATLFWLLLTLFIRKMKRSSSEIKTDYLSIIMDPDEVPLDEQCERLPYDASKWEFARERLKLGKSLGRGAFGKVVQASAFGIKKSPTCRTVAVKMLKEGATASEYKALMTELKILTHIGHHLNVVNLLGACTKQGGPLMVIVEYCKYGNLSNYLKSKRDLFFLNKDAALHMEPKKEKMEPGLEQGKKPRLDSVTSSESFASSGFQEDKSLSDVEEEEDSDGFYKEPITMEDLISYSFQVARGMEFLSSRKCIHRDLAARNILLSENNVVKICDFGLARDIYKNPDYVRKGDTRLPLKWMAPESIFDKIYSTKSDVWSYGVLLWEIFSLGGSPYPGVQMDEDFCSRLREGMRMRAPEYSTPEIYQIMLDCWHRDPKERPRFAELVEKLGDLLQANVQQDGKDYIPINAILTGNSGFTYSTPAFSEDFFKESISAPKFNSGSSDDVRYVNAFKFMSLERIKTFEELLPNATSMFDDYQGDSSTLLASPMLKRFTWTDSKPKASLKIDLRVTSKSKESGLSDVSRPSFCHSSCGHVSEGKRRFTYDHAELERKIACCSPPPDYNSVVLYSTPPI
EphA2, sequence (P29317 24-976, species assumed): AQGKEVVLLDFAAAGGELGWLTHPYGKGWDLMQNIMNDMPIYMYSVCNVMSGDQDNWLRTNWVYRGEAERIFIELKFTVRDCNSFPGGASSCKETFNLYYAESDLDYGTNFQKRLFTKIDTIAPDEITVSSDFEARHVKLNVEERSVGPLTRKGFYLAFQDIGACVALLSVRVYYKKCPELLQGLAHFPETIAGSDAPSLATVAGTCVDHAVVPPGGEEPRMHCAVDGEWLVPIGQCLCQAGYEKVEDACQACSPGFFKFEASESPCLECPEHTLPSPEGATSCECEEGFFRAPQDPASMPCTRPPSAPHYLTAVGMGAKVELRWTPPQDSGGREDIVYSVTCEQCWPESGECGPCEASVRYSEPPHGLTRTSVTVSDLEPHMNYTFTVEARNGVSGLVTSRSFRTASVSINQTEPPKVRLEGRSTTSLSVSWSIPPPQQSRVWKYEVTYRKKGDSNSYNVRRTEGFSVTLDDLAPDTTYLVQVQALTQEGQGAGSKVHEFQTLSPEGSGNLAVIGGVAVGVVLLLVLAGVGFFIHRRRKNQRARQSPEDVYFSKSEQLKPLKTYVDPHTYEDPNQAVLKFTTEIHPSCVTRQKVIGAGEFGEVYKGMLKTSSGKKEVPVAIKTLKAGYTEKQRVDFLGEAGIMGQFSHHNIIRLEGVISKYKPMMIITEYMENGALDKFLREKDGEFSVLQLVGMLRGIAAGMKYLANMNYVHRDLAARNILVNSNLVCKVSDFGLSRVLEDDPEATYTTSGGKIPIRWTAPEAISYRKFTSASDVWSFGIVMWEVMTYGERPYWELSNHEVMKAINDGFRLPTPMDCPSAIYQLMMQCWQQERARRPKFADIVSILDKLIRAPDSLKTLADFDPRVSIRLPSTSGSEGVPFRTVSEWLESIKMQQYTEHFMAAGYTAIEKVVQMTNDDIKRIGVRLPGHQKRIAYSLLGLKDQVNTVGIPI
IRK, sequence (P06213 28-1382): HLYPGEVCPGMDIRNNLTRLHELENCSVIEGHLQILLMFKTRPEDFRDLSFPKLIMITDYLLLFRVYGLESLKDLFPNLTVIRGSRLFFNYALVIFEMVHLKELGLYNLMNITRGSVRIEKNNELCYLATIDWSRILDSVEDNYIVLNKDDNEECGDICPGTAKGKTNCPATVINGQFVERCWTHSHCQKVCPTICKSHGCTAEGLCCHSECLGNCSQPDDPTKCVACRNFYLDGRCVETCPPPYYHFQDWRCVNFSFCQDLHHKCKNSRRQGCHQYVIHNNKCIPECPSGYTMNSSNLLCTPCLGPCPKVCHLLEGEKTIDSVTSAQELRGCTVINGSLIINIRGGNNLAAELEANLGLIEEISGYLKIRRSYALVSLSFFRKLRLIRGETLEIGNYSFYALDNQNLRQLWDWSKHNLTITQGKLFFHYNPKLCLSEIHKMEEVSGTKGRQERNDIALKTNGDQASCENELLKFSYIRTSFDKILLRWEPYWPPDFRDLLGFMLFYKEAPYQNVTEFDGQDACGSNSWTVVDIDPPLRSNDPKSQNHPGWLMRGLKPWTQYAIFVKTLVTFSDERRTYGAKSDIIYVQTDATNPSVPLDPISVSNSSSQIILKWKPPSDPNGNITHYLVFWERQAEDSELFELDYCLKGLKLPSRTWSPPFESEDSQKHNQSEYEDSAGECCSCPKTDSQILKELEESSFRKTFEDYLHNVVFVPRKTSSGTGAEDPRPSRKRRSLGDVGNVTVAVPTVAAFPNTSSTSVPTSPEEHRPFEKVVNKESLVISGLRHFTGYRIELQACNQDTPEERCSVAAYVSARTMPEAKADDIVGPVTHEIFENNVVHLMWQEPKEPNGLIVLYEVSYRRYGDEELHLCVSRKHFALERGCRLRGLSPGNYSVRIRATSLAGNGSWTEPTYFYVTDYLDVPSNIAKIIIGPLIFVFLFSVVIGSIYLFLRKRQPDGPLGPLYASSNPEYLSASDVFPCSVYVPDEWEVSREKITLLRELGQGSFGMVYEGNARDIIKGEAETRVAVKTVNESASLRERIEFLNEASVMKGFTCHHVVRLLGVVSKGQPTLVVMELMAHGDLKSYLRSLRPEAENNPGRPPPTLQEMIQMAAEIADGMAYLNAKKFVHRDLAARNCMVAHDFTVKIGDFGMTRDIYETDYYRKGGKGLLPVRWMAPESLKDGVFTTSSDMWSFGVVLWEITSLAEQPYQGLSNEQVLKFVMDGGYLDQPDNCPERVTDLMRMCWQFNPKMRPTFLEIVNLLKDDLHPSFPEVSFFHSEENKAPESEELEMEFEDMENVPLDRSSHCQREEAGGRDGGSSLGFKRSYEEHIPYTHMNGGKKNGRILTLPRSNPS
EGFR, sequence (P00533 25-1210, species assumed): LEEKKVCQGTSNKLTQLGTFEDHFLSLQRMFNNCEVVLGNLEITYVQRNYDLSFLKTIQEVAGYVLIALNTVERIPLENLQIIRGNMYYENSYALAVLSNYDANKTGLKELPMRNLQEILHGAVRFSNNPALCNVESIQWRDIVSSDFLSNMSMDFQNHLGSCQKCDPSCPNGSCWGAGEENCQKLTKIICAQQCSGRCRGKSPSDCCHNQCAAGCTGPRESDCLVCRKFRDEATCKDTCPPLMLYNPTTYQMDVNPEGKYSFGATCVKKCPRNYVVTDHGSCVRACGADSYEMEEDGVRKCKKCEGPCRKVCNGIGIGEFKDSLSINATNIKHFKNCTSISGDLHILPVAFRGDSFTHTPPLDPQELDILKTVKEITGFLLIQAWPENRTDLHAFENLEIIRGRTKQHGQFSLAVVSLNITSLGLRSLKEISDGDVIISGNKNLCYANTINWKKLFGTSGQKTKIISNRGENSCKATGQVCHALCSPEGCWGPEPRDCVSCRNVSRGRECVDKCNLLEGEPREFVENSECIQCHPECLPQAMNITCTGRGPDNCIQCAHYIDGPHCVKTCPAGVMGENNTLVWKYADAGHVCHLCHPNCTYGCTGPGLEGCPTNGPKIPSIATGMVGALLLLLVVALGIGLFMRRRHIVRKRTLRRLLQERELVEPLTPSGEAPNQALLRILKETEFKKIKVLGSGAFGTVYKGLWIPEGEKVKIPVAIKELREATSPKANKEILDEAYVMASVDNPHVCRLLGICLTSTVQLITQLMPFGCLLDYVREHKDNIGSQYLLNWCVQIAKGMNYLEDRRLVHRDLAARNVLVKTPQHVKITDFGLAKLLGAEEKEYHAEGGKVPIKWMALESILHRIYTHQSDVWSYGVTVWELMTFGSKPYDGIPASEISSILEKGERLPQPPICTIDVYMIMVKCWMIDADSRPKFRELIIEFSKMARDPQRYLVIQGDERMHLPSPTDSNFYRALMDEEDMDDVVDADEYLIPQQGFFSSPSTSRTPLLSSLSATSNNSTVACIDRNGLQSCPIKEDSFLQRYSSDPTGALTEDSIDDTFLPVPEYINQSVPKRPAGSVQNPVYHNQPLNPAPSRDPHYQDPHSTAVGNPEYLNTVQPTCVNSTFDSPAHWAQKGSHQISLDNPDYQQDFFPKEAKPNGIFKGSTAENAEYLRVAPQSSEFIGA

Broadly, the IC50 is the midpoint of a concentration-inhibition curve. Turning to `CCN1CCC(Nc2ccc3c(c2)/C(=C(\c2ccc(F)c(Cl)c2)c2ncc[nH]2)C(=O)N3)CC1` [Entry 53, (3Z)-3-[(3-chloro-4-fluorophenyl) (1H-imidazol-2-yl)methylidene]-5-[(1-ethylpiperidin-4-yl)amino]-1,3-dihydro-2H-indol-2-one], the IC50 was above 5000 nM against IRK; below 50 nM against c-Kit kinase; 500 to 5000 nM against EGFR; below 50 nM in test [1]; below 50 nM at PDGFR alpha; below 50 nM against FGFR1. The concentration for half-maximal inhibition (IC50) at Fyn was below 50 nM; on EphA2, 500 to 5000 nM.
As to `CCN1CCC(Nc2ccc3c(c2)/C(=C(/c2nc(C)c[nH]2)c2ccc(C(F)(F)F)cc2F)C(=O)N3)CC1` [Entry 108, (3Z)-5-[(1-ethylpiperidin-4-yl)amino]-3-[[2-fluoro-4-(trifluoromethyl)phenyl] (4-methyl-1H-imidazol-2-yl)methylidene]-1,3-dihydro-2H-indol-2-one], the half-maximal inhibitory concentration (IC50) at IRK was 500 to 5000 nM; at c-Kit kinase it was below 50 nM; at EGFR, 50 to 500 nM; in [1], below 50 nM; on PDGFR alpha, below 50 nM; against FGFR1, below 50 nM. For the same compound, the results for the IC50 on Fyn and against EphA2 were below 50 nM and 500 to 5000 nM, respectively.
On to `CCN1CCC(Nc2ccc3c(c2)/C(=C(/c2ncc[nH]2)c2ccc(F)cc2F)C(=O)N3)CC1` [Entry 112, (3Z)-3-[(2,4-difluorophenyl)(1H-imidazol-2-yl)methylidene]-5-[(1-ethylpiperidin-4-yl)amino]-1,3-dihydro-2H-indol-2-one], for which the IC50 on IRK is 500 to 5000 nM; at c-Kit kinase it was below 50 nM; on EGFR, 50 to 500 nM; in [1] it was below 50 nM; on PDGFR alpha it was below 50 nM; against FGFR1, below 50 nM. In addition, the IC50 was below 50 nM against Fyn and 500 to 5000 nM against EphA2.
Take `CCN1CCC(Nc2ccc3c(c2)/C(=C(/c2ncc[nH]2)c2ccc(C(F)(F)F)cc2F)C(=O)N3)CC1` [Entry 100, (3Z)-5-[(1-ethylpiperidin-4-yl)amino]-3-[[2-fluoro-4-(trifluoromethyl)phenyl] (1H-imidazol-2-yl)methylidene]-1,3-dihydro-2H-indol-2-one]: the half-maximal inhibitory concentration (IC50) against IRK is 500 to 5000 nM; against c-Kit kinase, below 50 nM; against EGFR, 50 to 500 nM; in [1], below 50 nM; at PDGFR alpha, below 50 nM; against FGFR1, below 50 nM. For the same compound, the IC50 at Fyn was below 50 nM; at EphA2, 500 to 5000 nM.
Consider `CCN1CCC(Nc2ccc3c(c2)/C(=C(\c2cc(F)cc(F)c2)c2ncc[nH]2)C(=O)N3)CC1` [Entry 73, (3Z)-3-[(3,5-difluorophenyl)(1H-imidazol-2-yl)methylidene]-5-[(1-ethylpiperidin-4-yl)amino]-1,3-dihydro-2H-indol-2-one], for which the IC50 against IRK is above 5000 nM; against c-Kit kinase, 50 to 500 nM; at EGFR, 50 to 500 nM; in test [1], below 50 nM; on PDGFR alpha, below 50 nM; against FGFR1 it was below 50 nM. Besides, the IC50 against Fyn is below 50 nM; against EphA2 it was 500 to 5000 nM.
Regarding `CCN1CCC(Nc2ccc3c(c2)/C(=C(\c2ccc(F)cc2)c2nc(C)c[nH]2)C(=O)N3)CC1` [Entry 106, (3Z)-5-[(1-ethylpiperidin-4-yl)amino]-3-[(4-fluorophenyl)(4-methyl-1H-imidazol-2-yl)methylidene]-1,3-dihydro-2H-indol-2-one], the 50% inhibitory concentration (IC50) is 500 to 5000 nM against IRK; 50 to 500 nM on c-Kit kinase; 50 to 500 nM against EGFR; below 50 nM in test [1]; below 50 nM at PDGFR alpha; 50 to 500 nM at FGFR1. The half-inhibitory concentration (IC50) on Fyn is below 50 nM; against EphA2 it was 500 to 5000 nM.
Consider `COCCN1CCC(Nc2ccc3c(c2)/C(=C(\c2ccccc2)c2nc4ccccc4[nH]2)C(=O)N3)CC1` [Entry 24, (3Z)-3-[1H-benzimidazol-2-yl(phenyl)methylidene]-5-({1-[2-(methyloxy)ethyl]piperidin-4-yl}amino)-1,3-dihydro-2H-indol-2-one], for which the half-inhibitory concentration (IC50) against IRK is 500 to 5000 nM; at c-Kit kinase it was below 50 nM; against EGFR it was 50 to 500 nM; at Fyn it was below 50 nM; on EphA2, 500 to 5000 nM.
With `CCN1CCC(Nc2ccc3c(c2)/C(=C(\c2cccc(C(F)(F)F)c2)c2nc(C)c[nH]2)C(=O)N3)CC1` [Entry 115, (3Z)-3-[(3-trifluoromethylphenyl)(4-methyl-1H-imidazol-2-yl)methylidene]-5-[(1-ethylpiperidin-4-yl)amino]-1,3-dihydro-2H-indol-2-one], the IC50 is 500 to 5000 nM on IRK; below 50 nM against c-Kit kinase; 500 to 5000 nM at EGFR; below 50 nM in [1]; below 50 nM on PDGFR alpha; 50 to 500 nM on FGFR1. The figures for the IC50 against Fyn and against EphA2 were 50 to 500 nM and 500 to 5000 nM, respectively.
As for `CCN1CCC(Nc2ccc3c(c2)/C(=C(\c2ccc(C(F)(F)F)c(F)c2)c2nc(C)c[nH]2)C(=O)N3)CC1` [Entry 103, (3Z)-5-[(1-ethylpiperidin-4-yl)amino]-3-[[3-fluoro-4-(trifluoromethyl)phenyl](4-methyl-1H-imidazol-2-yl)methylidene]-1,3-dihydro-2H-indol-2-one], the IC50 against IRK is 500 to 5000 nM; on c-Kit kinase, 50 to 500 nM; on EGFR it was below 50 nM; in test [1], below 50 nM; on FGFR1, below 50 nM; against Fyn, below 50 nM. The IC50 at EphA2 is 500 to 5000 nM.
Turning to `CCN1CCC(Nc2ccc3c(c2)/C(=C(\c2ccc(F)c(Cl)c2)c2nc(C)c[nH]2)C(=O)N3)CC1` [Entry 105, (3Z)-3-[(3-chloro-4-fluorophenyl)(4-methyl-1H-imidazol-2-yl)methylidene]-5-[(1-ethylpiperidin-4-yl)amino]-1,3-dihydro-2H-indol-2-one], the 50% inhibitory concentration (IC50) is 500 to 5000 nM on IRK; 50 to 500 nM against c-Kit kinase; 50 to 500 nM against EGFR; below 50 nM in test [1]; below 50 nM at PDGFR alpha; below 50 nM on FGFR1. Besides, the figures for the IC50 against Fyn and against EphA2 were below 50 nM and 500 to 5000 nM, respectively.
Turning to `CCN1CCC(Nc2ccc3c(c2)/C(=C(\c2cccc(C(F)(F)F)c2)c2ncc[nH]2)C(=O)N3)CC1` [Entry 114, (3Z)-3-[(3-trifluoromethylphenyl)(1H-imidazol-2-yl)methylidene]-5-[(1-ethylpiperidin-4-yl)amino]-1,3-dihydro-2H-indol-2-one], the IC50 was above 5000 nM against IRK; 50 to 500 nM against c-Kit kinase; 500 to 5000 nM at EGFR; below 50 nM in test [1]; below 50 nM on PDGFR alpha; 50 to 500 nM against FGFR1. The values for the 50% inhibitory concentration (IC50) on Fyn and against EphA2 were 50 to 500 nM and 500 to 5000 nM, respectively.
`CCN1CCC(Oc2ccc3c(c2)/C(=C(\c2cccc(Cl)c2)c2nc4ccccc4[nH]2)C(=O)N3)CC1` [Entry 35, (3Z)-3-[1H-benzimidazol-2-yl(3-chlorophenyl)methylidene]-5-[(1-ethylpiperidin-4-yl)oxy]-1,3-dihydro-2H-indol-2-one]: the IC50 at IRK is 500 to 5000 nM; at Flt-1, 50 to 500 nM; against EGFR, 500 to 5000 nM; in test [1] it was below 50 nM; at PDGFR alpha it was below 50 nM; at FGFR1, below 50 nM. For the same compound, the half-maximal inhibitory concentration (IC50) against Fyn is below 50 nM; on EphA2 it was 500 to 5000 nM.
Turning to `CCN1CCC(N(C)c2ccc3c(c2)/C(=C(\c2cccc(Cl)c2)c2nc4ccccc4[nH]2)C(=O)N3)CC1` [Entry 43], the IC50 against IRK is 500 to 5000 nM; at Flt-1, 500 to 5000 nM; against EGFR, 500 to 5000 nM; in test [1] it was below 50 nM; on PDGFR alpha it was 50 to 500 nM; on FGFR1 it was 50 to 500 nM. The IC50 against Fyn was in the range of 50 to 500 nM; at EphA2, 500 to 5000 nM.
With `COCCN1CCC(Nc2ccc3c(c2)/C(=C(\c2cccc(Cl)c2)c2ncc[nH]2)C(=O)N3)CC1` [Entry 40, (3Z)-3-[(3-chlorophenyl)(1H-imidazol-2-yl)methylidene]-5-({1-[2-(methyloxy)ethyl]piperidin-4-yl}amino)-1,3-dihydro-2H-indol-2-one], the IC50 against IRK is 500 to 5000 nM; at Flt-1 it was 50 to 500 nM; against EGFR, 500 to 5000 nM; in [1], below 50 nM; on PDGFR alpha it was below 50 nM; on FGFR1, below 50 nM. Besides, the IC50 against Fyn is below 50 nM; against EphA2 it was 500 to 5000 nM.
